Consider twelve molecules from patent US9045525B2, “Amyloid β-protein-specific production-inhibiting polypeptide” (THE DOSHISHA, priority 2012, dated 2015).

For data set [1], the system named is Notch transiently expressed in CHO-K1 cells (7WD10 cells). Description: Cleavage of Notch protein (NICD) in 7WD10 cells. The class given is cell-based. To be noted: for NICD in the cell lysate: polypeptide 25 or 50 μM; for abundance of the NICD in the cell lysate: polypeptide 1, 5, 10, 20, and 50 μM. The procedure: (§1) An experiment was conducted wherein #1, #2, and #4 polypeptides were reacted with CHO-K1 cells (7WD10 cells) that stably expressed APP protein and transiently expressed Notch to confirm the production of Aβ protein and cleavage of Notch protein.

The test system of data set [2] is CHO-K1 cells (7WD10 cells) that stably expressed APP protein. Description: Aβ protein production inhibition experiment in 7WD10 cells (sAPPβ, βCTF, Aβ). Format: cell-based. The protocol: as §1
The target in data set [3] is β-secretase against APP (APP-EQ-FLAG) (Homo sapiens, UniProt P05067). Description: β-Secretase activity inhibition experiment in vitro, APP-EQ-FLAG substrate. Conditions: polypeptide 50 μM, 4 hours, 37° C., Western blotting. Format: biochemical. The procedure: A solution containing the polypeptide having APP (APP-EQ-FLAG: SEQ ID NO: 18) as shown in FIG. 5(A) was prepared in such a manner that its final concentration was 50 nM.
Sequence of β-secretase against APP (APP-EQ-FLAG) (P05067 with tags, fused parts or gaps): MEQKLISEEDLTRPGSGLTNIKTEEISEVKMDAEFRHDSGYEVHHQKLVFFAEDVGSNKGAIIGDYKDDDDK
To this solution, 9-7 polypeptide, 6-5 polypeptide, #1 polypeptide, #2 polypeptide, #3 polypeptide, #4 polypeptide, #5 polypeptide, #6 polypeptide, #7 polypeptide, #8 polypeptide, #9 polypeptide, and #10 polypeptide were added in such a manner that each solution had the final concentration of 50 μM, followed by reacting with 50 μL β-secretase (0.02 U/μL) for 4 hours. The reaction temperature was 37° C. As a negative control experiment, DMSO was used in place of the 12 types of polypeptides mentioned above.
After completion of the reaction, each sample was subjected to Western blotting using a monoclonal antibody (82E-1) that specifically recognizes the N terminal of APP-EQ-FLAG as shown in FIG. 5(A). Thereafter, the amount of Aβ33-FLAG protein separated by β-secretase was measured.
An experiment was conducted in the same manner as Experimental Example 4 described above except that S4 and #4 polypeptides were used as the polypeptide and the amounts of these polypeptides added were adjusted so that the final concentrations were 1, 5, 10, 20, 50, and 100 μM.
(In general: A western blot detects proteins with antibodies after separation by electrophoresis.)

For another data set, the system named is CHO-K1 cells. Kind of data set: Mouse Aβ production inhibition experiment, CHO-K1 cells. Format: cell-based. Conditions: polypeptide 20 μM, CHO-K1 cells expressing mouse-type APP, anti-mouse Aβ antibody Western blotting. The protocol: (§2) #1, #2, and #4 polypeptides were added to the culture solutions of CHO-K1 cells and Neuro 2A cells (N2A) in such a manner that the final concentration was 20 μM. As a control, L685458 (i.e., a γ-secretase inhibitor) and DMSO were added thereto in such a manner that the final concentration was 20 μM.
(§3) Thereafter, Aβ contained in the cell culture medium was identified by using a Western-blotting method with an antibody (anti-mouse Aβ antibody) that recognizes Aβ. […] In the figure, L indicates L685458, which is a γ-secretase inhibitor (final concentration of 1 μM).

The target of data set [4] is γ-secretase against Notch (Mus musculus, UniProt Q01705, V1997L). Description: γ-Secretase activity inhibition experiment in vitro, Notch-FLAG substrate. Format: biochemical. The protocol: (§4) A polypeptide having βCTF (C99-FLAG: SEQ ID NO: 16) and mouse-derived Notch protein having a FLAG peptide at the C-terminal side (modification of NCBI Accession No. Q01705.2; SEQ ID NO: 17; hereunder referred to as “Notch”) shown in FIG. 2(A) were each made into a solution having a final concentration of 50 nM.
Sequence of γ-secretase against Notch (Q01705 with tags, fused parts or gaps V1997L): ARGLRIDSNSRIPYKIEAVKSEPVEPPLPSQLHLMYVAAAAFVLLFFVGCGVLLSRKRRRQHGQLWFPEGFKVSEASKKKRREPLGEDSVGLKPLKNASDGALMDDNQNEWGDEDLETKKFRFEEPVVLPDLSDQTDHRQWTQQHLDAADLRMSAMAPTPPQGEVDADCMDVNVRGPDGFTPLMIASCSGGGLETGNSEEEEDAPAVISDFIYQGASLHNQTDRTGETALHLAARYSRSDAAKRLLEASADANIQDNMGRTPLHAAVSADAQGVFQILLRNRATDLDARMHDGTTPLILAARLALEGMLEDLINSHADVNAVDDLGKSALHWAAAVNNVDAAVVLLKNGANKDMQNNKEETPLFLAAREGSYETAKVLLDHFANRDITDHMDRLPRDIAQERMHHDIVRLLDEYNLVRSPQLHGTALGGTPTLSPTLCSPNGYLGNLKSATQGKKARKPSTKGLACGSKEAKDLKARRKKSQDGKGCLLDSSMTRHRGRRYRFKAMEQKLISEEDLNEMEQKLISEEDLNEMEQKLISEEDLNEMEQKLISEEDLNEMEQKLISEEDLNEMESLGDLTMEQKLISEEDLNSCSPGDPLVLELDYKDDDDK
(§5) To these solutions, 9-7 polypeptide, 6-5 polypeptide, #1 polypeptide, #2 polypeptide, #3 polypeptide, and #4 polypeptide were added in such a manner that the final concentrations were 50 μM, followed by reacting with 50 μL of CHAPSO-solubilized membrane fraction (γ-secretase-containing fraction) for 4 hours. The reaction temperature was 37° C. As a negative control experiment, DMSO was used in place of the six types of polypeptides described above.
(§6) Each sample after completion of the reaction was measured in the following manner. As shown in FIG. 2(A), a sample using C99-FLAG was subjected to Western blotting using a monoclonal antibody (82E-1) that specifically recognizes the N terminal of C99-FLAG, and the amount of Aβ40 protein produced by the cleavarage by γ-secretase was measured. In contrast, the reaction sample using Notch-FLAG was subjected to Western blotting using an anti-FLAG monoclonal antibody, and the amount of NICD produced to the separete by γ-secretase was also measured. FIG. 2(B) and FIG. 2(C) show the results.
(§7) An experiment was conducted in the same manner as in Experimental Example 1 described above, except that only #1 polypeptide was used and the amount of #1 polypeptide was selected so that the final concentrations were 0.5, 1, 5, 10, 20, and 50 μM.
(§8) An experiment was conducted in the same manner as in Experimental Example 1 described above, except that S4 polypeptide was used as the polypeptide, and each addition amount was set in such a manner that the final concentrations were 1, 5, 10, 20, and 50 μM. In this Experimental Example, #4 polypeptide was added in such a manner that the final result was 50 μM.

For the next data set, the system named is Neuro 2A cells (N2A). Description: Mouse Aβ production inhibition experiment, Neuro 2A cells. Conditions: polypeptide 20 μM, Neuro2A cells expressing mouse-type APP, anti-mouse Aβ antibody Western blotting. The class given is cell-based. The procedure: as §2, §3
In data set [5] the target is γ-secretase against βCTF (C99-FLAG) (Homo sapiens, UniProt P05067). Description: γ-Secretase activity inhibition experiment in vitro, C99-FLAG substrate. Format: biochemical. Conditions: for cleavage activity of γ-secretase against βCTF (Aβ40 from C99-FLAG): polypeptide 50 μM, 4 hours, 37° C., Western blotting. The procedure: as §4, §5, §6, §7, §8
Sequence of γ-secretase against βCTF (C99-FLAG) (P05067 with tags, fused parts or gaps): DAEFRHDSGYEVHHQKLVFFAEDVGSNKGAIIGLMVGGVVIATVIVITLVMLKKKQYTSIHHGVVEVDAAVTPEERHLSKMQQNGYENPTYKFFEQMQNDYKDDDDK
The conditions of data set [6]: reported in NPL 1; cited from earlier work.
Where [7] appears, read: polypeptide 0.5, 1, 5, 10, 20, and 50 μM.
The mark [8] stands for this setting: polypeptide 1, 5, 10, 20, and 50 μM.

Entries after “also recorded” stand apart in the source; their conditions may differ.

With `CC(C)C[C@H](NC(=O)[C@H](Cc1ccccc1)C[C@@H](O)[C@H](Cc1ccccc1)NC(=O)OC(C)(C)C)C(=O)N[C@@H](Cc1ccccc1)C(N)=O` [L685458, reference compound], the “amount of NICD in the cell lysate” value in data set [1] (L685458 1 μM) was “the amount of NICD was decreased”. Further, in data set [2] (L685458 1 μM), the “Aβ protein in the cell culture medium (released Aβ)” value (“Aβ protein … (released Aβ)” below) was “decreased”; the “Aβ protein in the cell lysate (intracellular Aβ)” value (“Aβ protein in the cell lysate” below) is “decrease in βCTF (C99) and Aβ protein was also observed”; the “sAPP in the cell lysate” value is recorded as “such a phenomenon was not observed”; the “βCTF (C99) in the cell lysate” value was “decrease in βCTF (C99) and Aβ protein was also observed”.
For the molecule “FRBGWVYTYTV (FRXGWVYTYTV; HELM PEPTIDE1{[ac].F.R.[O=C([C@H](Cc1ccc(-c2ccccc2)cc1)N[*:1])[*:2]].G.W.V.Y.T.Y.T.V.[am]}$$$$V2.0; SMILES CC(=O)N[C@@H](Cc1ccccc1)C(=O)N[C@@H](CCCNC(=N)N)C(=O)N[C@@H](Cc1ccc(-c2ccccc2)cc1)C(=O)NCC(=O)N[C@@H](Cc1c[nH]c2ccccc12)C(=O)N[C@H](C(=O)N[C@@H](Cc1ccc(O)cc1)C(=O)N[C@H](C(=O)N[C@@H](Cc1ccc(O)cc1)C(=O)N[C@H](C(=O)N[C@H](C(N)=O)C(C)C)[C@@H](C)O)[C@@H](C)O)C(C)C) [S2, B is L-4,4′-biphenylalanine (Bph) residue]”, the “NICD in the cell lysate” value in data set [1] was “did not have any influence on NICD”. Further, in data set [2] (polypeptide final concentration of 50 μM), the “Aβ protein in the cell culture medium” value is “exhibited the Aβ protein production inhibition effect almost to the same level as #4 polypeptide and S4 polypeptide”.
Consider “MLICDCYCDPRSCICGSCTLV (Ac-MLICDCYCDPRSCICGSCTLV-NH2; cysteine pairing not given here) [L13]”, for which the “NICD in the cell lysate” value in data set [1] is recorded as “did not have any affect on NICD”. In addition, in data set [2] (polypeptide 25 or 50 μM), the “Aβ protein in the cell culture medium” value is reported as “did not inhibit the production of Aβ”.
Take “MPTVYCDCYCAYNACYCYYCRSD (Ac-MPTVYCDCYCAYNACYCYYCRSD-NH2; cysteine pairing not given here) [#10]”: the “cleavage activity of β-secretase against APP (Aβ33-FLAG)” value (shortened to “cleavage activity of β-secretase”) in data set [3] is “inhibit the cleavage activity of β-secretase against APP more intensely”.
For the molecule “MSIRVCDCYCHGDLCFCYSCINS (Ac-MSIRVCDCYCHGDLCFCYSCINS-NH2; cysteine pairing not given here) [#1]”, the “production of Aβ in the culture medium” value in the data set with CHO-K1 cells is recorded as “the production of Aβ in the culture medium was reduced”. In data set [3], the “cleavage activity of β-secretase” value is “inhibit the cleavage activity of β-secretase against APP more intensely”. Further, the “abundance of the NICD in the cell lysate” value in data set [1] is “not decreased”. Further, the “cleavage activity of γ-secretase against Notch (NICD)” value in data set [4] (polypeptide 50 μM, 4 hours, 37° C., Western blotting) is on record as “did not inhibit the cleavage activity against Notch”. Further, the “cleavage activity of γ-secretase against Notch (NICD)” value in data set [4] (setting [7]) is listed as “did not inhibit the cleavage activity of γ-secretase against Notch”. Besides, in data set [2] (setting [8]), the “Aβ protein … (released Aβ)” value was “decreased depending on the concentration”, the “Aβ protein in the cell lysate” value is given as “no longer present in a manner dependent on the final concentration”, the “sAPP in the cell lysate” value is “no longer present in a manner dependent on the final concentration” and the “βCTF (C99) in the cell lysate” value is on record as “no longer present in a manner dependent on the final concentration”. Further, the “production of Aβ in the culture medium” value in the data set with Neuro 2A cells (N2A) is listed as “the production of Aβ in the culture medium was reduced”. The “cleavage activity of γ-secretase against βCTF (Aβ40 from C99-FLAG)” value in data set [5] was “inhibited more cleavage activity of γ-secretase against βCTF; also recorded: inhibited the cleavage activity of γ-secretase against Aβ protein”. Besides, the “cleavage activity of γ-secretase against βCTF” value in data set [5] (setting [7]) is recorded as “more intensively inhibits the cleavage activity of γ-secretase against βCTF in a concentration-dependent manner; also recorded: inhibited the cleavage activity of γ-secretase against βCTF in a concentration-dependent manner”.
Take “MDTVICDCYCDNYVCFCYSCSHV (Ac-MDTVICDCYCDNYVCFCYSCSHV-NH2; cysteine pairing not given here) [#2]”: the “production of Aβ in the culture medium” value in the data set with CHO-K1 cells is on record as “the production of Aβ in the culture medium was reduced”. Moreover, in data set [3], the “cleavage activity of β-secretase” value is given as “inhibit the cleavage activity of β-secretase against APP more intensely”. The “abundance of the NICD in the cell lysate” value in data set [1] is “not decreased”. Moreover, in data set [2] (setting [8]), the “Aβ protein … (released Aβ)” value is listed as “decreased depending on the concentration”, the “Aβ protein in the cell lysate” value is “no longer present in a manner dependent on the final concentration”, the “sAPP in the cell lysate” value is reported as “no longer present in a manner dependent on the final concentration” and the “βCTF (C99) in the cell lysate” value is listed as “no longer present in a manner dependent on the final concentration”. The “production of Aβ in the culture medium” value in the data set with Neuro 2A cells (N2A) was “the production of Aβ in the culture medium was reduced”. Also, the “cleavage activity of γ-secretase against βCTF (Aβ40 from C99-FLAG)” value in data set [5] is “inhibited more cleavage activity of γ-secretase against βCTF”.
Regarding “MPLSICDCYCISTICYCYFCVHR (Ac-MPLSICDCYCISTICYCYFCVHR-NH2; cysteine pairing not given here) [#9]”, the “cleavage activity of β-secretase” value in data set [3] is given as “inhibit the cleavage activity of β-secretase against APP more intensely”.
Take “MGLISCDCYCDSTACFCYSCTDF (Ac-MGLISCDCYCDSTACFCYSCTDF-NH2; cysteine pairing not given here) [#3]”: the “cleavage activity of β-secretase” value in data set [3] is “inhibit the cleavage activity of β-secretase against APP more intensely”.
For “MLYTSCDCYCDAFSCFCYSCGPY (Ac-MLYTSCDCYCDAFSCFCYSCGPY-NH2; cysteine pairing not given here) [#6]”, the “cleavage activity of β-secretase” value in data set [3] is reported as “inhibit the cleavage activity of β-secretase against APP more intensely”.
On to `C[C@H](NC(=O)[C@@H](O)c1cc(F)cc(F)c1)C(=O)N[C@@H]1C(=O)N(C)c2ccccc2-c2ccccc21` [LY-411,575], for which, in data set [6], the “effect on the thymus” value is listed as “induces atrophy of the thymus” and the “number of mature B cells in the spleen” value is on record as “reduces the number of mature B cells in the spleen”.
Consider “MVPVVCDCYCFLSVCFCYSCYIT (Ac-MVPVVCDCYCFLSVCFCYSCYIT-NH2; cysteine pairing not given here) [#5]”, for which, in data set [3], the “cleavage activity of β-secretase” value is listed as “inhibit the cleavage activity of β-secretase against APP more intensely”.
Turning to “MGRVNCDCYCIGHYCYCYYCHNI (Ac-MGRVNCDCYCIGHYCYCYYCHNI-NH2; cysteine pairing not given here) [#8]”, in data set [3], the “cleavage activity of β-secretase” value is “inhibit the cleavage activity of β-secretase against APP more intensely”.
